Results on ten substances are retold here after publication PMC10447463, “Data-mining unveils structure–property–activity correlation of viral infectivity enhancing self-assembling peptides” (Nature Communications, 2023).

Series [1] is classed as physicochemical. The note with it: for ThT Cat. / ThT-Fluorescence (categorical): ThT-active if fluorescence at least twice the control. The gist of the method: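 Fibrils (1 mg/mL solution) were mixed with 50 µM ThT in PBS for 15 min at RT, and fluorescence was read at λex 440/λem 488 nm against a PBS blank, as a triplicate mean ± SD. Zeta potential came from electrophoretic mobility (Smoluchowski) after 1 d aggregation at 1 mg/mL in PBS pH 7.4, diluted into 1 mM KCl.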

The subject of series [2] is HIV-1 infection of TZM-bl cells. The series is described as follows: HIV-1 infectivity enhancement assay, β-galactosidase luminescence. Format: cell-based. The note with it: for Log10 Infection Rel EF-C: log10 of infection relative to EF-C, Figure 7B; for Inf. rel. EF-C: n-fold infection vs virus only, relative to that of EF-C, 1.3 µM peptide.

Take DFNKF [reference compound]: the “ThT Cat. / ThT-Fluorescence (categorical)” value (shortened to “ThT Cat. / ThT-Fluorescence”) in series [1] is 0 (ThT-inactive (N-Fold <2)). Also, in series [2], the “Log10 Infection Rel EF-C” value is reported as -1.07 and the “Inf. rel. EF-C” value was found to be 0.08.
On to GAITIG-NH2 [reference compound], for which the “ThT Cat. / ThT-Fluorescence” value in series [1] is 0 (ThT-inactive (N-Fold <2)). For the same substance, in series [2], the “Log10 Infection Rel EF-C” value is given as -1.35 and the “Inf. rel. EF-C” value came out at 0.04.
Taken in the same sequence, the figures for GNNQQNY [reference compound] were 0 (ThT-inactive (N-Fold <2)), -1.28 and 0.05.
Taken in the same sequence, the figures for GQTVTK [reference compound] were 0 (ThT-inactive (N-Fold <2)), -1.25 and 0.06.
Taken in the same sequence, the figures for IIKIIK [reference compound] were 0 (ThT-inactive (N-Fold <2)), -1.1 and 0.08.
In the case of NSGAITIG-NH2 [reference compound], the “ThT Cat. / ThT-Fluorescence” value in series [1] was 0 (ThT-inactive (N-Fold <2)). In series [2], the “Log10 Infection Rel EF-C” value is -1.26 and the “Inf. rel. EF-C” value came to 0.05.
Taken in the same sequence, the figures for RCELARTLKR [reference compound] were 0 (ThT-inactive (N-Fold <2)), -1.06 and 0.09.
As for RIRIQIC [PS07], in series [1] (ThT fluorescence relative to blank, blank = 42.1851851851852), the “Tht rel to blank (42.1851851851852)” value was determined as 1.32. Further, the “Tht category (> 1.5 to blank = +)” value in series [1] (category 1/0) was 0 (ThT-inactive (N-Fold <2)).
Take VLYVGSKT [reference compound]: the “ThT Cat. / ThT-Fluorescence” value in series [1] was 0 (ThT-inactive (N-Fold <2)). Also, in series [2], the “Log10 Infection Rel EF-C” value is on record as -1.24 and the “Inf. rel. EF-C” value was found to be 0.06.
Taken in the same sequence, the figures for VQIVYK [reference compound] were 0 (ThT-inactive (N-Fold <2)), -1.17 and 0.07.
